Consider ten compounds from article PMC6983213, “Combining Chalcones with Donepezil to Inhibit Both Cholinesterases and Aβ Fibril Assembly” (Molecules, 2019).

Experiment [1] has as its target EeAChE (AChE from Electrophorus electricus) (Electrophorus electricus, UniProt O42275). The experiment is described as follows: biochemical. Particulars: for IC50: Ellman's method, pH 8.0, 25 °C, triplicate, ± SDEV, read-out: Inhibition (IC50) of EeAChE; for selectivity index (SI): based on IC50 values against EeAChE and EfBChE. The method, then:
(§1) The ChE inhibition assays were performed as previously described. The 1,3- and 1,4-chalcone-donepezil hybrids (0.1 nM to 100 μM) were dissolved in sodium phosphate buffer ((100 μL), 0.1 M, pH 8.0). […] All assays were performed in triplicate. The data was plotted as a sigmoidal curve and IC50 values were calculated using SigmaPlot 14.0 (Systat Software, San Jose, CA, USA).
In general terms: DTNB colorimetry detects thiols as they appear.

Experiment [2] has as its target T1, N-biotinyl-Aβ(1–42) (bioAβ42) oligomer assembly (Homo sapiens, UniProt P05067).
T1 construct: N-biotinyl Aβ(1–42) (bioAβ42) was purchased from Anaspec; purchased Anaspec (Fremont, CA, USA) AS-23523-05
The experiment is described as follows: biochemical. The note with it: for bioAβ42 oligomer assembly inhibition (in words): 1.56 to 50 μM, alone or in 1:1 / 1:1:1 mixtures; for EC50: concentration range 50 to 1.56 μM, duplicate, n = 3 independent experiments, ± SDEV, read-out: EC50 against bioAβ42 oligomer assembly. The method, then:
We first examined the effect of the synthesized 1,3- and 1,4-chalcone-donepezil hybrids 15a–15f and 16a–16f on the assembly of N-biotinyl-Aβ(1–42) (bioAβ42) monomers into oligomers. We quantified the assembly of bioAβ42 into soluble oligomers by using an ELISA assay in which the soluble oligomers were captured on NeutrAvidin^TM-coated ELISA plates and detected with streptavidin-horseradish peroxidase and colorimetric readout (Figure 3).
The plates were then stored in their blocked form at 4 °C prior to use for the oligomer assembly and dissociation assays.
The assembly of bioAβ42 into soluble oligomers was quantified with an ELISA assay in which the soluble oligomers were captured with the NeutrAvidin^TM coating the ELISA plates. The bound oligomers were detected with streptavidin-horseradish peroxidase (SA-HRP). […] Below, please find the details of the three steps (Steps 1–3) used for the oligomer assembly assay.
Step 1: Preparation of monomeric bioAβ42. For a low background, it was essential to rigorously pretreat the bioAβ42 peptide to convert (disaggregate) the multimeric species that form upon storage in the solid state, or even frozen in 1,1,1,3,3,3-hexafluoroisopropanol (HFIP) to monomers. The required amount of stock bioAβ42 peptide (0.5 mg dissolved at 1 mg/mL in HFIP) was pipetted into a polypropylene microfuge tube, dried to a thin film under a gentle air or N2 stream, and then disaggregated for 10 min at rt in neat trifluoroacetic acid (TFA). After removal of the TFA by drying with an air or N2 stream, DMSO was added to produce a 2.3 μg/mL (50×) stock solution.
Step 2: Assembly of bioAβ42 oligomers. 2 μL of disaggregated monomeric 50× bioAβ42 peptide in DMSO (prepared in Step 1) was pipetted into the bottom of each well of a polypropylene 96-well plate. […] The 96-well plate was sealed and incubated at rt for 30 min without shaking. The bioAβ42 oligomer assembly was stopped by adding 50 μL of 0.3% Tween 20 v/v in distilled H2O.
Step 3: Measurement of bioAβ42 oligomers. […] The 96-well plate was then sealed and incubated for 2 h while shaking at 150 rpm at rt. […] The plate was sealed and incubated for 1 h while shaking at 150 rpm at rt. The plate was washed as previously described, and 100 μL/well of HRP substrate (i.e., 1 mM:0.07 mM/tetramethylbenzidine:H2O2) in 0.2 M citrate buffer, pH 4.0 was added. The plate was incubated at rt for 5 to 10 min and the reaction was stopped by the addition of 100 μL/well of 1% v/v H2SO4. The absorbance of each well was read at 450 nm with a BioTek HT Synergy plate reader.
The effects of various chalcones, donepezil, donepezil analogue, and 1,3-chalcone-donepezil hybrids were tested for their ability to inhibit the bioAβ42 oligomer assembly and dissociation either alone or in combination with each other. The experiments were performed as described in the biotinyl-Aβ(1–42) (bioAβ42) oligomer assembly and dissociation assays section.

Experiment [3] addresses EfBChE (BChE from Equus ferus) (Equus caballus, UniProt P81908). The experiment is described as follows: biochemical. It counts as biochemical. Particulars: Ellman's method, pH 8.0, 25 °C, triplicate, ± SDEV; read-out: Inhibition (IC50) of EfBChE. As to the method: as §1
Experiment [4] deals with ADPBC (Alzheimer's disease PIB binding complex). The experiment is described as follows: 3H-PIB binding competition/titration, ADPBC. The arrangement: species or system Human. The note with it: compounds at 10 μM (titration 10 to 0.03 μM); 1.2 nM 3H-PIB. As to the method: Human AD brain frontal cortical tissue (from the Sanders-Brown Center on Aging Alzheimer’s Disease Center Brain Bank at the University of Kentucky) was processed as follows.
The plates were sealed and incubated for 3 h at 22 °C, without shaking, and transferred to a 96-well Millipore Multiscreen HTS Hi Flow FB (GF/B) filter plate, and filtered with a multi-well plate vacuum manifold (Millipore Corporation, Bedford, MA, USA). […] Specific binding of ^3H-PIB was determined by subtracting the non-specific binding determined in the presence of 1 μM BTA-1.
The titration of compounds with ^3H-PIB bound to Aβ(1–40) and Aβ(1–42) fibrils and AD brain extract (ADPBC) were performed to further determine the competition of our compounds for the ^3H-PIB binding site of the AD brain. The experiments were performed as described in the ^3H-PIB binding assays of Section 3.4.3 with the use of a concentration range of 10 to 0.03 μM for the compounds tested.

Structures are written as SMILES. Several values for one entry are separate records, joined by “and”; a condition that tells them apart may be missing. Equal entries are not always repeated.

T1 sequence (P05067 672-713): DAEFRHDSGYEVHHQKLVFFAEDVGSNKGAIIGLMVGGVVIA
Chain of EfBChE (BChE from Equus ferus) (P81908 whole entry): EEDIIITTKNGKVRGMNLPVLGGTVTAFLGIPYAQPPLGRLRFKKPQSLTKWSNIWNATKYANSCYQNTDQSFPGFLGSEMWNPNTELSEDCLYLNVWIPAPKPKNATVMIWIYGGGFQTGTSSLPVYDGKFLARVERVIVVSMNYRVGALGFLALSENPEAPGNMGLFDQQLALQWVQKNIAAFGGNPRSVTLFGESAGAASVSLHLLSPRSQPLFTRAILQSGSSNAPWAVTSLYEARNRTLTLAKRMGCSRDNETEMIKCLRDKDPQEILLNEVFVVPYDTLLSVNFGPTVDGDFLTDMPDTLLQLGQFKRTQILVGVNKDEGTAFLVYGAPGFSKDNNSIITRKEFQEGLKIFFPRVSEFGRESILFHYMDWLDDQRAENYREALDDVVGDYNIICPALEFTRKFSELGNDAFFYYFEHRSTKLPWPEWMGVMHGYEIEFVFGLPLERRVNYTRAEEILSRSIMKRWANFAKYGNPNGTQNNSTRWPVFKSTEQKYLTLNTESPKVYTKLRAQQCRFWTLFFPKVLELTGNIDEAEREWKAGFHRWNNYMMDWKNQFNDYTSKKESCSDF
Chain of EeAChE (AChE from Electrophorus electricus) (O42275 24-633): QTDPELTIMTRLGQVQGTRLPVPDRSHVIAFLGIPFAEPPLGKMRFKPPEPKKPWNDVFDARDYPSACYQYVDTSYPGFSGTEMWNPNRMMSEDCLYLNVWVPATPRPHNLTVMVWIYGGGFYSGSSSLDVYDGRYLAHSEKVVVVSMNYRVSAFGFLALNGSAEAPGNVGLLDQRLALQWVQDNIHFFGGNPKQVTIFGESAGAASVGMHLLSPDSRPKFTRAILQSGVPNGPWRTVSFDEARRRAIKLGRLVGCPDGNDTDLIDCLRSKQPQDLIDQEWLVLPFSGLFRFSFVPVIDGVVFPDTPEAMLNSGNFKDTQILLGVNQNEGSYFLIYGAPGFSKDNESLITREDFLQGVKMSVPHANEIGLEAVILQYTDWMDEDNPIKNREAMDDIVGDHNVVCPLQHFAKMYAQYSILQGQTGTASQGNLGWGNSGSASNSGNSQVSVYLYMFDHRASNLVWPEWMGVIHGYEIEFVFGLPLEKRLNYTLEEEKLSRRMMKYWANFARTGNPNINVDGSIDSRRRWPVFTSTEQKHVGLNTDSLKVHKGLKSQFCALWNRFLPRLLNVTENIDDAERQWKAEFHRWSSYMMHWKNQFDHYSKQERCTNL

As a reminder, the IC50 is the midpoint of a concentration-inhibition curve. The EC50 is the midpoint of the concentration-response curve. Take `COc1cc2c(cc1OCCCCCCCCCCCCOc1cccc(C(=O)/C=C/c3ccc(N(C)C)cc3)c1)C(=O)C(CC1CCN(Cc3ccccc3)CC1)C2` (stereo not shown) [15f, (E)-2-((1-Benzylpiperidin-4-Yl)Methyl)-6-((12-(3-(3-(4-(Dimethylamino)Phenyl)Acryloyl)Phenoxy)Dodecyl)Oxy)-5-Methoxy-2,3-Dihydro-1H-Inden-1-One]: in experiment [1], the IC50 was 1670 ± 800 nM and the “selectivity index (SI)” value is on record as greater than 60. Also, in experiment [2], the “bioAβ42 oligomer assembly inhibition (in words)” value was “did not prevent bioAβ42 oligomerization”; the EC50 was 45300 nM and > 12000 nM. The IC50 in experiment [3] was greater than 100000 nM.
In the case of `COc1cc2c(cc1OCCCCCCCCCCCCOc1ccc(C(=O)/C=C/c3ccc(N(C)C)cc3)cc1)C(=O)C(CC1CCN(Cc3ccccc3)CC1)C2` (stereo not shown) [16f, (E)-2-((1-Benzylpiperidin-4-Yl)Methyl)-6-((12-(4-(3-(4-(Dimethylamino)Phenyl)Acryloyl)Phenoxy)Dodecyl)Oxy)-5-Methoxy-2,3-Dihydro-1H-Inden-1-One], the “displacement of 3H-PIB from ADPBC (in words)” value in experiment [4] is given as “ADPBC affinity comparable to that of 16a”. Besides, in experiment [1], the IC50 is greater than 100000 nM. Further, in experiment [2], the “bioAβ42 oligomer assembly inhibition (in words)” value was “did not prevent bioAβ42 oligomerization”; the EC50 was 24100 nM and > 12000 nM. For the same compound, the IC50 in experiment [3] is greater than 100000 nM.
For `COc1cc2c(cc1OCCCCCCCCOc1cccc(C(=O)/C=C/c3ccc(N(C)C)cc3)c1)C(=O)C(CC1CCN(Cc3ccccc3)CC1)C2` (stereo not shown) [15d, (E)-2-((1-Benzylpiperidin-4-Yl)Methyl)-6-((8-(3-(3-(4-(Dimethylamino)Phenyl)Acryloyl)Phenoxy)Octyl)Oxy)-5-Methoxy-2,3-Dihydro-1H-Inden-1-One], in experiment [1], the IC50 is 1220 ± 130 nM and the “selectivity index (SI)” value is “≈1.6”. Besides, in experiment [2], the “bioAβ42 oligomer assembly inhibition (in words)” value is listed as “better inhibition of bioAβ42 oligomer assembly” and the EC50 is 9670 ± 1150 nM. Moreover, in experiment [3], the IC50 is roughly 2000 nM.
With `COc1cc2c(cc1OCCCCCCCCCCOc1cccc(C(=O)/C=C/c3ccc(N(C)C)cc3)c1)C(=O)C(CC1CCN(Cc3ccccc3)CC1)C2` (stereo not shown) [15e, (E)-2-((1-Benzylpiperidin-4-Yl)Methyl)-6-((10-(3-(3-(4-(Dimethylamino)Phenyl)Acryloyl)Phenoxy)Decyl)Oxy)-5-Methoxy-2,3-Dihydro-1H-Inden-1-One], in experiment [1], the IC50 is 1820 ± 450 nM and the “selectivity index (SI)” value is “≈5.5”. In experiment [2], the “bioAβ42 oligomer assembly inhibition (in words)” value was “did not prevent bioAβ42 oligomerization”; the concentration giving a half-maximal response (EC50) is 31700 nM and > 12000 nM. In addition, the half-maximal inhibitory concentration (IC50) in experiment [3] is roughly 10000 nM.
With `COc1cc2c(cc1OCCCCOc1ccc(C(=O)/C=C/c3ccc(N(C)C)cc3)cc1)C(=O)C(CC1CCN(Cc3ccccc3)CC1)C2` (stereo not shown) [16b, (E)-2-((1-Benzylpiperidin-4-Yl)Methyl)-6-(4-(4-(3-(4-(Dimethylamino)Phenyl)Acryloyl)Phenoxy)Butoxy)-5-Methoxy-2,3-Dihydro-1H-Inden-1-One], in experiment [1], the IC50 was 140 ± 20 nM and the “selectivity index (SI)” value is given as “≈3.6”. Besides, in experiment [2], the “bioAβ42 oligomer assembly inhibition (in words)” value is “better inhibition of bioAβ42 oligomer assembly” and the EC50 came out at 2000 ± 200 nM. In addition, the IC50 in experiment [3] was roughly 500 nM.
Consider `COc1cc2c(cc1OCCCCCCCCCCOc1ccc(C(=O)/C=C/c3ccc(N(C)C)cc3)cc1)C(=O)C(CC1CCN(Cc3ccccc3)CC1)C2` (stereo not shown) [16e, (E)-2-((1-Benzylpiperidin-4-Yl)Methyl)-6-((10-(4-(3-(4-(Dimethylamino)Phenyl)Acryloyl)Phenoxy)Decyl)Oxy)-5-Methoxy-2,3-Dihydro-1H-Inden-1-One], for which the “displacement of 3H-PIB from ADPBC (in words)” value in experiment [4] is on record as “ADPBC affinity comparable to that of 16a”. For the same compound, the half-inhibitory concentration (IC50) is 1380 ± 180 nM in experiment [1] and roughly 5000 nM in experiment [3]. In experiment [2], the “bioAβ42 oligomer assembly inhibition (in words)” value is “did not prevent bioAβ42 oligomerization”. In experiment [2], the EC50 came out at 9730 ± 550 nM.
Consider `COc1cc2c(cc1OCCCCCCOc1cccc(C(=O)/C=C/c3ccc(N(C)C)cc3)c1)C(=O)C(CC1CCN(Cc3ccccc3)CC1)C2` (stereo not shown) [15c, (E)-2-((1-Benzylpiperidin-4-Yl)Methyl)-6-((6-(3-(3-(4-(Dimethylamino)Phenyl)Acryloyl)Phenoxy)Hexyl)Oxy)-5-Methoxy-2,3-Dihydro-1H-Inden-1-One], for which, in experiment [1], the IC50 amounted to 1220 ± 180 nM and the “selectivity index (SI)” value is “≈3.3”. Besides, in experiment [2], the “bioAβ42 oligomer assembly inhibition (in words)” value is on record as “better inhibition of bioAβ42 oligomer assembly” and the EC50 worked out at 8670 ± 150 nM. Moreover, the half-maximal inhibitory concentration (IC50) in experiment [3] was roughly 4000 nM.
As to `COc1cc2c(cc1OCCCCCCOc1ccc(C(=O)/C=C/c3ccc(N(C)C)cc3)cc1)C(=O)C(CC1CCN(Cc3ccccc3)CC1)C2` (stereo not shown) [16c, (E)-2-((1-Benzylpiperidin-4-Yl)Methyl)-6-((6-(4-(3-(4-(Dimethylamino)Phenyl)Acryloyl)Phenoxy)Hexyl)Oxy)-5-Methoxy-2,3-Dihydro-1H-Inden-1-One], in experiment [1], the IC50 is roughly 500 nM and the “selectivity index (SI)” value is “≈1.2”. Moreover, in experiment [2], the “bioAβ42 oligomer assembly inhibition (in words)” value is given as “better inhibition of bioAβ42 oligomer assembly” and the EC50 was 2600 ± 460 nM. For the same compound, the IC50 in experiment [3] is roughly 600 nM.
For `COc1cc2c(cc1OCCCCCCCCOc1ccc(C(=O)/C=C/c3ccc(N(C)C)cc3)cc1)C(=O)C(CC1CCN(Cc3ccccc3)CC1)C2` (stereo not shown) [16d, (E)-2-((1-Benzylpiperidin-4-Yl)Methyl)-6-((8-(4-(3-(4-(Dimethylamino)Phenyl)Acryloyl)Phenoxy)Octyl)Oxy)-5-Methoxy-2,3-Dihydro-1H-Inden-1-One], in that order: 520 ± 60 nM, “≈1.9”, “better inhibition of bioAβ42 oligomer assembly”, 4130 ± 150 nM and roughly 1000 nM.
Consider `CN(C)c1ccc(/C=C/C(=O)c2ccc(O)cc2)cc1` [compound 6, (E)-3-(4-(Dimethylamino)Phenyl)-1-(4-Hydroxyphenyl)Prop-2-En-1-One], for which the EC50 in experiment [2] is greater than 50000 nM.
